Earlier results as cited in patent US6419959B1, “Galenic composition containing opioid antagonists” (Klinge Pharma GmbH, priority 1996, dated 2002).
Where two headings read alike, the source gives them in different places.

Columns and labels:
[1] = metabolites of naloxone present in the blood
patients = settings: oral
[2] = test system: patients with opioid-induced constipation; settings: oral
[3] = test system: patients with opioid-induced constipation; settings: oral, maximally administered dose 12 mg

Compound: CN1CC[C@]23c4c5ccc(O)c4O[C@H]2[C@@H](O)C=C[C@H]3[C@H]1C5 [morphine]
- patients in whom constipation arises during treatment (patients given morphine): approximately 85%

Compound: C=CCN1CC[C@]23c4c5ccc(O[C@@H]6O[C@H](C(=O)O)[C@@H](O)[C@H](O)[C@H]6O)c4O[C@H]2C(=O)CC[C@@]3(O)[C@H]1C5 [naloxone-3-glucuronide]
- effectiveness of metabolite [1]: not effective or only weakly effective

Compound: C=CCN1CC[C@]23c4c5ccc(O)c4O[C@H]2C(=O)CC[C@@]3(O)[C@H]1C5 [naloxone]
- neutralisation of the constipating effect of loperamide (healthy probands; intravenously applied, 40 μg/kg/hr in 3 hr): could neutralize the constipating effect of loperamide
- neutralisation of the constipating effect of loperamide (healthy probands; oral administration of 16 or 32 mg): could neutralize the constipating effect of loperamide
- effect on constipation (patients; up to 10% naloxone dose with respect to the opioid dose): No effect was determinable
- effect on constipation (patients; very high dose range 20% to 40% of the opioid dose): neutralization of constipation
- response to the treatment (neutralisation of constipation) ([2]; doses of up to 16 mg, three patients): two of the three patients responded
- neutralisation of constipation in the other patient (non-responder) ([2]; increase in dose of up to 24 mg within 3 hours): constipation could not be neutralized
- dose-dependent maximal naloxone plasma concentrations ([2]; plasma level determinations): up to 7.9 ng/ml
- effect on the gastrointestinal motility [3]: not determinable in any of the treated patients

Compound: C=CCN1CC[C@]23c4c5ccc(O[C@@H]6O[C@H](C(=O)O)[C@@H](O)[C@H](O)[C@H]6O)c4O[C@H]2[C@H](O)CC[C@@]3(O)[C@H]1C5 [β-naloxol-3-glucuronide]
- effectiveness of metabolite [1]: not effective or only weakly effective

Compound: C=CCN1CC[C@]23c4c5ccc(O)c4O[C@H]2[C@H](O)CC[C@@]3(O)[C@H]1C5 [β-naloxol]
- effectiveness of metabolite [1]: not effective or only weakly effective
